# Measured values published in PubChem BioAssay AID1963978 (Molecular Pharmacology Branch, DTP, NCI, 2024).
# System: 616215-338-R-J1-PDC spheroids with HUVEC/MSC, viability
# Test: Anticancer human tumor 616215-338-R-J1-PDC patient-derived colon adenocarcinoma cell line growth inhibition [PI3K]
# Conditions: for IC50: curve of first compound; for viability, T/C: stronger effect = lower value
# Source text: Combinatorial screen of targeted agents with the PI3K inhibitors inavolisib, alpelisib, duvelisib, and copanlisib in multi-cell type tumor spheroids
# A high-throughput screen of multi-cell type tumor spheroids was designed to identify active combinations of targeted small molecules and PI3K pathway inhibitors. Complex spheroids include a stromal component modeled by human endothelial cells (HUVEC) and fibroblasts modeled by human mesenchymal stem cells (MSCs). The concentration ranges selected for each drug and investigational agent were based upon clinically achievable concentrations if the clinical Cmax of the agent was known.
# Compounds. The drugs and investigational agents: inavolisib (NSC800729), alpelisib (NSC765974), duvelisib (NSC772469), copanlisib (NSC816437), ipatasertib (NSC767898), afuresertib (NSC778305), talazoparib (NSC767125), sapanisertib (NSC764658), selumetinib (NSC741078), tovorafenib (DAY101, NSC766906), vemurafenib (NSC761431), ravoxertinib (NSC781343), sotorasib (NSC818433), MRTX1133 (NSC 836407), abemaciclib (NSC 768073), palbociclib (NSC758247), venetoclax (NSC 766270), SY5609 (NSC837396), enzalutamide (NSC755605), and darolutamide (NSC825331), were obtained from the National Cancer Institute (NCI) Developmental Therapeutics Program Chemical Repository. The FDA-approved anticancer drug set is available from the NCI Developmental Therapeutics Program. […] The stock solutions were prepared in dimethyl sulfoxide (DMSO, Sigma-Aldrich, St. Louis, MO, cat. D2650) at 800-fold the tested concentration and stored at -70 degrees C prior to their use. All drugs and investigational agents were tested over a range starting from a high concentration at or near the clinical Cmax and decreasing in half-log increments. If the clinical Cmax for an agent had not been determined, the highest concentration tested was 10 microM.
# Cell Culture. All cells were maintained in an incubator at 37 degrees C and 5% CO2 with 95% humidity. The PDC lines were cultured according to standard operating procedures established by the NCI PDMR (https://pdmr.cancer.gov/sops/default.htm). All PDCs were thawed and cultured in Matrigel-coated flasks prepared with a working solution of 1X Ham's F-12 nutrient mix, without supplementation (Invitrogen, Waltham, MA, cat. 11765054), 100 U/mL penicillin-streptomycin (Invitrogen, cat. 15140122), and 2.5% Matrigel (Corning Inc., Corning, NY, cat. 354248) for the first three passages. The 354836-022-R-J1-PDC, 475296-252-R-J1-PDC, and 997726-040-R-J2-PDC lines were cultured in 6A media, which includes advanced DMEM/F-12 (Thermo Fisher Scientific, cat. 12634028), 10 mM HEPES (Thermo Fisher Scientific, cat. 15630080), 1X GlutaMAX supplement (Thermo Fisher Scientific, cat. 35050061), 0.1 mg/mL primocin (InvivoGen, San Diego, CA, cat. ant-pm-2), 10% defined fetal bovine serum, heat inactivated (HyClone Laboratories Inc., Logan, UT, cat. SH30070.03HI), 50% L-WRN conditioned media (ATCC, cat. CRL-3276), 1.25 mM N-Acetyl-L-cysteine (Sigma-Aldrich, cat. A9165), 10 mM nicotinamide (Sigma-Aldrich, cat. N0636), 1X B-27 supplement (Thermo Fisher Scientific, cat. 17504044), 1X N-2 supplement (Thermo Fisher Scientific, cat. 17502048), and 10 microM Y-27632 dihydrochloride (Tocris Bioscience, Bristol, United Kingdom, cat. 1254). The 624824-186-R-J2-PDC line was cultured in 6C/Colon 1B media, which includes all 6A media components plus 50 ng/mL human EGF recombinant protein (Thermo Fisher Scientific, cat. PHG0311). […]
# [1] = second compound 0.0316 µM, first compound 0.0316 µM
# [2] = second compound 0.0316 µM, first compound 0.1 µM
# [3] = second compound 0.0316 µM, first compound 0.316 µM
# [4] = second compound 0.0316 µM, first compound 1 µM
# [5] = second compound 0.0316 µM, first compound 3.16 µM
# [6] = second compound 0.0316 µM, first compound 10 µM
# [7] = second compound 0.1 µM, first compound 0.0316 µM
# [8] = second compound 0.1 µM, first compound 0.1 µM
# [9] = second compound 0.1 µM, first compound 0.316 µM
# [10] = second compound 0.1 µM, first compound 1 µM
# [11] = second compound 0.1 µM, first compound 3.16 µM
# [12] = second compound 0.1 µM, first compound 10 µM
# [13] = second compound 0.316 µM, first compound 0.0316 µM
# [14] = second compound 0.316 µM, first compound 0.1 µM
# [15] = second compound 0.316 µM, first compound 0.316 µM
# [16] = second compound 0.316 µM, first compound 1 µM
# [17] = second compound 0.316 µM, first compound 3.16 µM
# [18] = second compound 0.316 µM, first compound 10 µM
# [19] = second compound 1 µM, first compound 0.0316 µM
# [20] = second compound 1 µM, first compound 0.1 µM
# [21] = second compound 1 µM, first compound 0.316 µM
# [22] = second compound 1 µM, first compound 1 µM
# [23] = second compound 1 µM, first compound 3.16 µM
# [24] = second compound 1 µM, first compound 10 µM
# [25] = second compound 3.16 µM, first compound 0.0316 µM
# [26] = second compound 3.16 µM, first compound 0.1 µM
# [27] = second compound 3.16 µM, first compound 0.316 µM
# [28] = second compound 3.16 µM, first compound 1 µM
# [29] = second compound 3.16 µM, first compound 3.16 µM
# [30] = second compound 3.16 µM, first compound 10 µM
# [31] = second compound 10 µM, first compound 0.0316 µM
# [32] = second compound 10 µM, first compound 0.1 µM
# [33] = second compound 10 µM, first compound 0.316 µM
# [34] = second compound 10 µM, first compound 1 µM
# [35] = second compound 10 µM, first compound 3.16 µM
# [36] = second compound 10 µM, first compound 10 µM
# 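Note: spheroids exposed to agents for seven days before the viability read.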
compound,measurement,setting,value
CC1(C)CCC(Nc2ncc(C(F)(F)F)c(-c3c[nH]c4c(P(C)(C)=O)c(C#N)ccc34)n2)CN1 (stereo unspecified) + CC(Nc1ccc2c(c1)OCCn1cc(N3C(=O)OCC3C(F)F)nc1-2)C(N)=O,IC50,second compound 0.00316 µM,3.62 µM
same,IC50,second compound 0.01 µM,3.73 µM
same,IC50,second compound 0.0316 µM,3.54 µM
same,IC50,second compound 0.1 µM,3.84 µM
same,IC50,second compound 0.316 µM,1.63 µM
same,IC50,second compound 1 µM,1.39 µM
same,"viability, T/C","second compound 0.00316 µM, first compound 0.0316 µM",50.4%
same,"viability, T/C","second compound 0.00316 µM, first compound 0.1 µM",55.4%
same,"viability, T/C","second compound 0.00316 µM, first compound 0.316 µM",56.4%
same,"viability, T/C","second compound 0.00316 µM, first compound 1 µM",61.7%
same,"viability, T/C","second compound 0.00316 µM, first compound 3.16 µM",59.1%
same,"viability, T/C","second compound 0.00316 µM, first compound 10 µM",0.47%
same,"viability, T/C","second compound 0.01 µM, first compound 0.0316 µM",53.6%
same,"viability, T/C","second compound 0.01 µM, first compound 0.1 µM",54.3%
same,"viability, T/C","second compound 0.01 µM, first compound 0.316 µM",58%
same,"viability, T/C","second compound 0.01 µM, first compound 1 µM",64.8%
same,"viability, T/C","second compound 0.01 µM, first compound 3.16 µM",61%
same,"viability, T/C","second compound 0.01 µM, first compound 10 µM",0.42%
same,"viability, T/C",[1],58%
same,"viability, T/C",[2],49.4%
same,"viability, T/C",[3],71.4%
same,"viability, T/C",[4],52.2%
same,"viability, T/C",[5],55.4%
same,"viability, T/C",[6],2.25%
same,"viability, T/C",[7],66.7%
same,"viability, T/C",[8],59.5%
same,"viability, T/C",[9],53.2%
same,"viability, T/C",[10],59.4%
same,"viability, T/C",[11],60.4%
same,"viability, T/C",[12],2.28%
same,"viability, T/C",[13],49.8%
same,"viability, T/C",[14],45.8%
same,"viability, T/C",[15],59.5%
same,"viability, T/C",[16],71.9%
same,"viability, T/C",[17],41%
same,"viability, T/C",[18],0.25%
same,"viability, T/C",[19],49.6%
same,"viability, T/C",[20],54.3%
same,"viability, T/C",[21],64.7%
same,"viability, T/C",[22],62.2%
same,"viability, T/C",[23],30.8%
same,"viability, T/C",[24],1.17%
CNC(=O)c1ccc(N2C(=S)N(c3ccc(C#N)c(C(F)(F)F)c3)C(=O)C2(C)C)cc1F + CC(Nc1ncnc2nc[nH]c12)c1cc2cccc(Cl)c2c(=O)n1-c1ccccc1,IC50,second compound 0.0316 µM,> 10 µM
same,IC50,second compound 0.1 µM,> 10 µM
same,IC50,second compound 0.316 µM,> 10 µM
same,IC50,second compound 1 µM,> 10 µM
same,IC50,second compound 3.16 µM,> 10 µM
same,IC50,second compound 10 µM,> 10 µM
same,"viability, T/C",[1],98.5%
same,"viability, T/C",[2],107%
same,"viability, T/C",[3],109%
same,"viability, T/C",[4],106%
same,"viability, T/C",[5],104%
same,"viability, T/C",[6],101%
same,"viability, T/C",[7],91%
same,"viability, T/C",[8],98.9%
same,"viability, T/C",[9],96%
same,"viability, T/C",[10],97.9%
same,"viability, T/C",[11],108%
same,"viability, T/C",[12],114%
same,"viability, T/C",[13],97.2%
same,"viability, T/C",[14],97%
same,"viability, T/C",[15],105%
same,"viability, T/C",[16],97.1%
same,"viability, T/C",[17],110%
same,"viability, T/C",[18],112%
same,"viability, T/C",[19],113%
same,"viability, T/C",[20],109%
same,"viability, T/C",[21],111%
same,"viability, T/C",[22],105%
same,"viability, T/C",[23],111%
same,"viability, T/C",[24],114%
same,"viability, T/C",[25],95.6%
same,"viability, T/C",[26],94.3%
same,"viability, T/C",[27],111%
same,"viability, T/C",[28],104%
same,"viability, T/C",[29],103%
same,"viability, T/C",[30],106%
same,"viability, T/C",[31],104%
same,"viability, T/C",[32],117%
same,"viability, T/C",[33],117%
same,"viability, T/C",[34],116%
same,"viability, T/C",[35],110%
same,"viability, T/C",[36],116%
CCCS(=O)(=O)Nc1ccc(F)c(C(=O)c2c[nH]c3ncc(-c4ccc(Cl)cc4)cc23)c1F + Cc1nc(NC(=O)N2CCCC2C(N)=O)sc1-c1ccnc(C(C)(C)C(F)(F)F)c1,IC50,second compound 0.0316 µM,4.02 µM
same,IC50,second compound 0.1 µM,4.28 µM
same,IC50,second compound 0.316 µM,4.25 µM
same,IC50,second compound 1 µM,4.51 µM
same,IC50,second compound 3.16 µM,3.71 µM
same,IC50,second compound 10 µM,2.99 µM
same,"viability, T/C",[1],108%
same,"viability, T/C",[2],94%
same,"viability, T/C",[3],94.7%
same,"viability, T/C",[4],81.2%
same,"viability, T/C",[5],66.6%
same,"viability, T/C",[6],3.55%
same,"viability, T/C",[7],90.6%
same,"viability, T/C",[8],92.5%
same,"viability, T/C",[9],84.8%
same,"viability, T/C",[10],91.2%
same,"viability, T/C",[11],66.2%
same,"viability, T/C",[12],4.03%
same,"viability, T/C",[13],95.3%
same,"viability, T/C",[14],90.1%
same,"viability, T/C",[15],90.3%
same,"viability, T/C",[16],85%
same,"viability, T/C",[17],65.5%
same,"viability, T/C",[18],5.89%
same,"viability, T/C",[19],95.9%
same,"viability, T/C",[20],92.2%
same,"viability, T/C",[21],93.5%
same,"viability, T/C",[22],86.1%
same,"viability, T/C",[23],69.9%
same,"viability, T/C",[24],6.45%
same,"viability, T/C",[25],96.8%
same,"viability, T/C",[26],86.8%
same,"viability, T/C",[27],91.9%
same,"viability, T/C",[28],82.3%
same,"viability, T/C",[29],57%
same,"viability, T/C",[30],5.97%
same,"viability, T/C",[31],91.7%
same,"viability, T/C",[32],86.4%
same,"viability, T/C",[33],87.4%
same,"viability, T/C",[34],87.8%
same,"viability, T/C",[35],48%
same,"viability, T/C",[36],4.82%
